Experimental data from patent US8293489B2, “Methods for detection of biological substances” (priority 2007, dated 2012).
Marks after values point to notes of the source that are not given here.

Tests used:
Type in all cases: in vivo, human
[1] = system: TNFR 1; assay: TNFR 1 in nasal mucus in patients with hyposmia treated with theophylline
Description: (§1) Tables 36-38 illustrate detection and measurement of TNFα, TNFR 1 and TNFR 2 in nasal mucus of patients with graded loss of smell following treatment with theophylline. […] Further, nasal mucus can be used as an index of disease, disease severity and efficacy of disease treatment. Without limiting the scope of the present invention, this approach is applicable to other substances in nasal mucus in relationship to other disease processes (e.g., cancer, stroke) and to follow-up of their treatment with any drug. […]
With increased smell loss pre treatment TNFR 1 levels were increased in nasal mucus in patients with Type I hyposmia (whose smell loss was increased over that of patients with Type II hyposmia). After theophylline treatment, as a dose of drug increased, TNFR 1 levels decreased in Type I associated with increases in smell function. […] The greater was the smell loss, the higher was the level of TNFR 1.

[2] = system: TNFα; assay: TNFα in nasal mucus in patients with hyposmia treated with theophylline
Description: as §1
These studies were extended to reveal levels of TNFα in nasal mucus of patients with graded loss of smell following treatment with theophylline (Table 36). Smell loss was graded such that loss was greatest in Type I hyposmia, less in Type II and still less in Type III (I>II>III). […] In Type I hyposmia TNFα decreased 40% after treatment with 400 mg theophylline and 57% after treatment 600 mg. In Type II hyposmia TNFα decreased 11% after treatment with 600 mg theophylline.

[3] = system: patients with hyposmia; assay: Smell function in patients with hyposmia treated with theophylline
Description: Theophylline may also restore smell function through other mechanisms.
Its continual measurement during treatment of these disorders helps in monitoring efficacy of therapy. The detection of NO in nasal mucus provides a non invasive method of diagnosing various diseases related to human physiology and pathology.

[4] = system: nitric oxide (NO); assay: NO in nasal mucus in patients with hyposmia before and after theophylline treatment; conditions: for NO in nasal mucus: Patients (12)
Description: Table 33 in the examples illustrates NO in nasal mucus in patients treated with theophylline in various doses before and after drug treatment. NO levels in nasal mucus changed following the treatment of patients with smell loss. […] Its continual measurement during treatment of the disorders helps in monitoring efficacy of therapy. The detection of NO in nasal mucus provides a non invasive method of diagnosing various diseases related to human physiology and pathology. The methods of the present invention include treatment of diseases by modulating the concentrations of NO by use of drugs or agents. The method of treatment is preferably by nasal administration.
Table 33 illustrates NO levels in nasal mucus in patients treated with Theophylline in various doses before and after drug treatment. NO levels in nasal mucus changed following the treatment of patients with smell loss. […] Its continual measurement during treatment of these disorders helps in monitoring efficacy of therapy. The detection of NO in nasal mucus provides a non invasive method of diagnosing various diseases related to human physiology and pathology.

[5] = system: TRAIL; assay: TRAIL in nasal mucus in patients with hyposmia before and after treatment with theophylline; conditions: for Nasal mucus TRAIL: patients with hyposmia (5)
Description: Table 16 illustrates detection and measurement of TRAIL in nasal mucus in patients with hyposmia before and after treatment with theophylline at various doses. […] Without limiting the scope of the present invention, other drugs are also considered with in the scope of the present invention for the treatment of various diseases. This is one of the example of the multiple examples of drugs to treat disease in which changes of various substances found in nasal mucus reflect biochemical normalization and functional improvement in the disease process.
Table 16 illustrates detection and measurement of TRAIL in nasal mucus in patients with hyposmia before and after treatment with theophylline at various doses.

[6] = system: TNFR 2; assay: TNFR 2 in nasal mucus in patients with hyposmia treated with theophylline
Description: Tables 36-38 illustrate detection and measurement of TNFα, TNFR 1 and TNFR 2 in nasal mucus of patients with graded loss of smell following treatment with theophylline. […] Further, nasal mucus can be used as an index of disease, disease severity and efficacy of disease treatment. Without limiting the scope of the present invention, this approach is applicable to other substances in nasal mucus in relationship to other disease processes (e.g., cancer, stroke) and to follow-up of their treatment with any drug.
Table 35 illustrates detection and measurement of TNFα, and soluble TNF receptors 1 and 2, moieties in the nasal mucus. TNFα, and soluble TNF receptors 1 and 2 increase in systems undergoing excessive apoptosis.
With a dose dependent increase of theophylline treatment levels of TNFR 2 in nasal mucus decreased consistent with a dose dependent increase in smell function. Levels of TNFR 2 in patients with Type I and Type II hyposmia decreased almost 50% on 600 mg theophylline consistent with their greatest return of smell function. At this highest level of theophylline levels of TNFR 2 were decreased in relationship to the decrease in smell function—TNFR 2, Type I>Type II>Type III; smell loss, Type I>Type II>Type III.

[7] = HYPOSMIA TYPE I (7), theophylline 200 mg orally daily
[8] = HYPOSMIA TYPE I (7), theophylline 600 mg orally daily
[9] = HYPOSMIA TYPE II (10), theophylline 200 mg orally daily
[10] = HYPOSMIA TYPE II (10), theophylline 400 mg orally daily
[11] = HYPOSMIA TYPE II (10), theophylline 600 mg orally daily
[12] = HYPOSMIA TYPE III (2), theophylline 600 mg orally daily
[13] = patients with hyposmia, stepwise increase in theophylline treatment
[14] = patients with hyposmia, theophylline at various doses
[15] = patients with hyposmia, theophylline in graded doses

With `Cn1c(=O)c2[nH]cnc2n(C)c1=O` [theophylline] the “TNFR 1 in nasal mucus” value [1, 7] was 6,521 ± 1,304^c, the “TNFR 1 in nasal mucus” value ([1]; HYPOSMIA TYPE I (7), theophylline 400 mg orally daily) was 1,498 and the “TNFR 1 in nasal mucus” value [1, 8] was 1,832 ± 704^a. The “TNFR 1 in nasal mucus” value [1, 9] was 1,462 ± 371, the “TNFR 1 in nasal mucus” value [1, 10] was 1,087 ± 335 and the “TNFR 1 in nasal mucus” value [1, 11] was 862 ± 335. For the same molecule, the “TNFR 1 in nasal mucus” value [1, 12] was 585 ± 335, the “change in TNFR 1 levels in nasal mucus” value ([1]; Type I hyposmia, as dose of drug increased) was “decreased” and the “TNFR 1 in nasal mucus” value ([1]; patients with hyposmia (19), Theophylline treatment 200) was 3,148 ± 663 pg/ml. For the same molecule, the “TNFR 1 in nasal mucus” value ([1]; patients with hyposmia (19), Theophylline treatment 400) was 1,146 ± 220^b pg/ml, the “TNFR 1 in nasal mucus” value ([1]; patients with hyposmia (19), Theophylline treatment 600) was 1,220 ± 286^ab pg/ml and the “change in soluble TNF receptor 1 in nasal mucus” value [1, 13] was “significant dose-response decrease”. The “TNF∝ in nasal mucus” value ([2]; HYPOSMIA TYPE I (8), theophylline 400 mg orally daily) was 15.6, the “TNF∝ in nasal mucus” value ([2]; HYPOSMIA TYPE I (8), theophylline 600 mg orally daily) was 11.2 ± 4.4 and the “TNF∝ in nasal mucus” value ([2]; HYPOSMIA TYPE II (13), theophylline 200 mg orally daily) was 14.9 ± 2.5. The “TNF∝ in nasal mucus” value ([2]; HYPOSMIA TYPE II (13), theophylline 400 mg orally daily) was 11.5 ± 3.2, the “TNF∝ in nasal mucus” value ([2]; HYPOSMIA TYPE II (13), theophylline 600 mg orally daily) was 4.3 ± 0.8^a and the “TNF∝ in nasal mucus” value ([2]; HYPOSMIA TYPE III (3), theophylline 600 mg orally daily) was 1.2 ± 0.7^bc. The “decrease in TNFα in nasal mucus” value ([2]; Type I hyposmia, after treatment 600 mg theophylline) was 57%, the “decrease in TNFα in nasal mucus” value ([2]; Type I hyposmia, after treatment with 400 mg theophylline) was 40% and the “decrease in TNFα in nasal mucus” value ([2]; Type II hyposmia, after treatment with 600 mg theophylline) was 11%. The “change in TNFα levels in nasal mucus” value ([2]; each hyposmia patient group, with each increased dose of theophylline) was “decreased in each patient group”, the “TNF∝ in nasal mucus” value ([2]; patients with hyposmia (24), Theophylline treatment (mg/l) 200) was 20.0 ± 2.8 pg/mL and the “TNF∝ in nasal mucus” value ([2]; patients with hyposmia (24), Theophylline treatment (mg/l) 400) was 12.1 ± 2.1^d pg/ml. For the same molecule, the “TNF∝ in nasal mucus” value ([2]; patients with hyposmia (24), Theophylline treatment (mg/l) 600) was 7.4 ± 1.8^a pg/ml, the “change in TNFα in nasal mucus” value [2, 13] was “significant dose-response decrease” and the smell function ([3]; patients with hyposmia (loss of smell), general statement) was “restores smell function in some patients with hyposmia”. For the same molecule, the smell function ([3]; patients with hyposmia, 600 mg theophylline) was “restored smell function to or toward normal”, the smell function [3, 14] was “returned smell function to normal in a dose-dependent manner” and the smell function [3, 15] was “graded increases in smell function”. For the same molecule, the “NO in nasal mucus” value ([4]; Theophylline 200 mg) was 0.25 ± 0.01 µg/mL, the “NO in nasal mucus” value ([4]; Theophylline 400 mg) was 0.40 ± 0.06 µg/mL and the “NO in nasal mucus” value ([4]; Theophylline 600 mg) was 0.59 ± 0.16 µg/mL. For the same molecule, the “change in NO in nasal mucus” value [4, 15] was “increases in nasal mucus NO”, the “Nasal mucus TRAIL” value ([5]; theophylline 200 mg) was 855 µg/mL and the “Nasal mucus TRAIL” value ([5]; theophylline 400 mg) was 791 µg/mL. The “Nasal mucus TRAIL” value ([5]; theophylline 600 mg) was 247 µg/mL, the “change in TRAIL in nasal mucus” value [5, 14] was “dose-dependent decrease in TRAIL” and the “TNFR 2 in nasal mucus” value [6, 7] was 3,100 ± 1,184. The “TNFR 2 in nasal mucus” value [6, 8] was 1,491 ± 1,102, the “TNFR 2 in nasal mucus” value [6, 9] was 1,378 ± 480 and the “TNFR 2 in nasal mucus” value [6, 10] was 1,014 ± 272. The “TNFR 2 in nasal mucus” value [6, 11] was 553 ± 158, the “TNFR 2 in nasal mucus” value [6, 12] was 436 ± 443 and the “change in TNFR 2 levels in nasal mucus” value ([6]; dose dependent increase of theophylline treatment) was “decreased”. For the same molecule, the “decrease in TNFR 2 levels in nasal mucus” value ([6]; patients with Type I and Type II hyposmia, 600 mg theophylline) was about 50%, the “TNFR 2 in nasal mucus” value ([6]; patients with hyposmia (18), Theophylline treatment (mg orally daily) 200) was 1,952 ± 339 pg/ml and the “TNFR 2 in nasal mucus” value ([6]; patients with hyposmia (18), Theophylline treatment (mg orally daily) 400) was 949 ± 180^c pg/ml. The “TNFR 2 in nasal mucus” value ([6]; patients with hyposmia (18), Theophylline treatment (mg orally daily) 600) was 916 ± 344 pg/mL and the “change in soluble TNF receptor 2 in nasal mucus” value [6, 13] was “significant dose-response decrease”.
